Experiments:
[1] = tested on: HCT116 cells; assay: Growth inhibitory activity on HCT116 cell (CellTiter-Glo); type: cell-based; settings: Homo sapiens, HCT-116, 72 h; test compound 1 μM, 3 days; read-out: HCT116 cell proliferation inhibitory rate (%) at 1 μM
Protocol: The growth inhibitory activity of the compound on HCT116 cell was evaluated by the following method.
HCT116 cells were seeded in a 384 well blackplate at 900 cells/[…]/well, and maintained in an assay medium (RPMI medium (Wako) containing 2% fetal bovine serum, 50 Unit/mL penicillin and […] streptomycin (Invitrogen)). The next day, a test compound dissolved in dimethyl sulfoxide (DMSO) was diluted with the assay medium, and the obtained compound solution was added by […] to each well of a plate containing HCT116 cells, and incubated at 37° C., 5% CO2 (test compound addition group).
A similar reaction was performed without adding a test compound (test compound non-addition group).
Furthermore, a similar reaction was performed under the conditions without adding HCT116 cell and a test compound (control group).
After 3 days, […] of a CellTiter-Glo reagent (Promega KK) was added to the well, and the mixture was stirred for 10 min. Thereafter, the luminescence value of each well was measured by the EnVision™ multilabel counter (Perkin Elmer Inc.).
The HCT116 cell proliferation inhibitory rate (%) of the test compound was determined by the following calculation formula. (1−(luminescence of test compound addition group−luminescence of control group)÷(luminescence of test compound non-addition group−luminescence of control group))×100
The HCT116 cell proliferation inhibitory rates (%) of the test compound (1 μM) are shown below.

[2] = tested on: collagen I gene expression level in liver; assay: Inhibitory effect on liver fibrosis caused by NASH (collagen I gene expression level in liver); type: in vivo; settings: homo low-density lipoprotein receptor deficient mouse, choline-deficient amino acid diet, oral once per day for three weeks
Protocol: The action on liver fibrosis caused by non-alcoholic steatohepatitis (NASH) was verified by the following method.
For efficacy evaluation of action on the above-mentioned fibrosis, 9-week-old, male, homo low-density lipoprotein receptor deficient mouse (Jackson Laboratories (Bar Harbor Me., USA)) was used. Specifically, a choline-deficient amino acid diet (A08111307, Research Diets, New Brunswick, N.J., USA) was fed to the above-mentioned mouse for one week, and a drug was administered for three weeks, and then the collagen I gene expression level in liver after the drug administration was measured.
(§1) For the above-mentioned drug administration group, the test compound suspended in 0.5% methylcellulose solution was orally administered by gavage using a stomach gavage needle once per day (n=8). […]
The measurement of the collagen I gene expression level in liver was performed by the following method. […] The total RNA was purified using RNeasy Mini Kit (Qiagen, Valencia, Calif., USA), and cDNA was prepared using High Capacity cDNA Reverse Transcription Kit (PN4368814, Applied Biosystems, Foster City, Calif., USA), and the collagen I gene expression level was measured (collagen type I alpha 1, Part Number 4351370, Applied Biosystems) by the quantitative PCR method (TaqMan Gene Expression Master Mix, PN4369016, Applied Biosystems). […]

[3] = Anti-fatty liver effect (triglyceride amount in liver); type: in vivo; settings: homo low-density lipoprotein receptor deficient mouse, choline-deficient amino acid diet, oral once per day for three weeks
Excerpt: As representative examples of anti-fatty liver effect, the action on fatty liver caused by non-alcoholic steatohepatitis was verified by the following method.
For efficacy evaluation of action on the above-mentioned fibrosis, 9-week-old, male, homo low-density lipoprotein receptor deficient mouse (Jackson Laboratories (Bar Harbor Me., USA)) was used. Specifically, a choline-deficient amino acid diet (A08111307, Research Diets, New Brunswick, N.J., USA) was fed to the above-mentioned mouse for one week, and a drug was administered for three weeks, and then the triglyceride amount in liver after the drug administration was measured.
as §1
The measurement of the triglyceride amount in liver was performed by the following method. […] The total weight of the isolated liver was measured, and a part of the liver was immediately cryopreserved using dry ice. […] The dried substance was dissolved in 2-propanol, and the triglyceride concentration in the solution was measured by autoanalyzer (Hitachi 7180 type). The total triglyceride amount in the liver (mg/liver) was calculated from the weight of the liver used for the measurement and the total liver weight. […]

SMILES: C[C@@H](COc1cnc(-c2ccc(Oc3cccc(OCC4CC4)c3)cc2)o1)NC(N)=O [Example 82, 1-((2S)-1-((2-(4-(3-(cyclopropylmethoxy)phenoxy)phenyl)-1,3-oxazol-5-yl)oxy)propan-2-yl)urea]
- inhibition at 1 µM [1]: 33%
- inhibitory effect on liver fibrosis caused by non-alcoholic steatohepatitis (collagen I gene expression level in liver, FIG. 1) [2]: superior inhibitory effect on liver fibrosis caused by non-alcoholic steatohepatitis
- inhibitory effect on fatty liver caused by non-alcoholic steatohepatitis (triglyceride amount in liver, FIG. 2) [3]: superior inhibitory effect on fatty liver caused by non-alcoholic steatohepatitis

Reference: patent publication US10252997B2, “Monocyclic compound” (Takeda Pharmaceutical Company Limited, priority 2015, dated 2019)
